# According to US20180221457A1 (VAL-CHUM, LIMITED PARTNERSHIP, priority 2015, published 2018):
# T1: human G3PP (hG3PP) (Homo sapiens, UniProt A6NDG6)
# T1 construct: expressed in transfected cells; host or cells: 293T cells (whole cell extract)
# T1 sequence (A6NDG6 1-321): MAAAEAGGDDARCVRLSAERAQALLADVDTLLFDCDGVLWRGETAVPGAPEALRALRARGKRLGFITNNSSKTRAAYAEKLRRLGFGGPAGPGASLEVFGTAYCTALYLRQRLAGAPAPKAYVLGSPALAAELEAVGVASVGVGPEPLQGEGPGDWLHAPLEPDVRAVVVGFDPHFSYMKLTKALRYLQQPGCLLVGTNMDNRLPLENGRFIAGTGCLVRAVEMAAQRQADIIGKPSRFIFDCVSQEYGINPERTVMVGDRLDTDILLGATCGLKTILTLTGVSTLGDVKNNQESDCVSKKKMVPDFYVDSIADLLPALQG
# Columns and labels:
# human G3PP (hG3PP) = target: T1, human G3PP (hG3PP); experiment: Effect of organic acids on G3PP activity in hG3PP-overexpressing 293T cell extracts; format: biochemical; settings: 10 mM Gro3P substrate, 2 or 10 mM test organic acid, 30 min at 30° C.
# Method: In order to examine the effect of various compounds on G3PP activity, human G3PP (hG3PP) was overexpressed in 293T cells, using a plasmid vector. Simultaneously control cells received GFP (Green Fluorescent Protein) expression plasmid. After 72 h following transfection, cells were harvested and whole cell extracts were prepared in Krebs Ringer Buffer (KRBH). G3PP was assayed using […] G3PP cell extract protein (or GFP control extract) with 10 mM Gro3P substrate and 2 or 10 mM test organic acid (R-hydroxy butyric acid, glycolate, succinate, citrate, malate, fumarate, lactate and malonate). Incubations were for 30 min at 30° C. Then the reactions were stopped by adding perchloric acid and glycerol released was measured using Γ-^32P-labeled ATP plus glycerokinase. The amount of glycerol release is proportional to the activity of hG3PP in the cell extracts.
# INS832/13 β-cells = experiment: Free fatty acids and glycerol release from INS832/13 cells; format: cell-based, rat; settings: 50 μM orlistat, 2 h
# Method: (§1) Free fatty acids and glycerol release. For FFA determinations, isolated rat islets were pre-incubated for 1 h in KRBH containing 2 mM glutamine and at 4 mM glucose, 50 μM carnitine and then incubated for 2 h at 4, 10, 16 and 25 mM glucose. The low and high glucose concentrations were 2 and 10 mM, respectively, when INS832/13 cells were used. Incubations were done without and with the panlipase inhibitor, orlistat. Cells and islets were harvested after incubations for protein extraction. FFA released into the medium were extracted by a modified Dole-Meinertz extraction procedure (Puttmann et al., 1993). Briefly, the media (0.5 ml), in Pyrex glass tubes, were mixed with the internal standard [^2H31]-palmitic acid and extracted with 2.5 ml of a solvent mixture containing isopropanol-n-heptane-2M phosphoric acid (40:10:1, v/v). […] The dried fatty acids were derivatized with phenacylbromide and quantified by reverse phase HPLC (Mehta et al., 1998) using a Zorbax Eclipse plus XDB analytical C18 column (4.6×250 mm; 5 μm; Agilent Technology). FFA were eluted using methanol/water (92.5:7.5, v/v) at a flow rate of 1.5 ml/min and absorbance of eluting FFA-phenacyl derivatives was measured at 242 and 254 nm. […] Glycerol release was determined by a radiometric glycerol assay (Bradley and Kaslow, 1989) using [Γ-^32P]ATP and glycerokinase.
# rat islets = experiment: Free fatty acids and glycerol release from isolated rat islets; format: cell-based; settings: 50 μM orlistat, 2 h
# Method: Islet and hepatocyte isolation. Pancreatic islets were isolated from rats and mice (Peyot et al., 2009). Isolated islets were cultured overnight at 37° C. in complete RPMI 1640 medium. Hepatocytes were isolated from rats by in situ collagenase perfusion and were seeded in DMEM complete medium (Merlen et al., 2014).
# as §1, with “v/v). After thorough mixing by vortex, the tubes were kept in a bath sonicator (Branson Ultrasonic) and sonicated for 2 min with 30 s intervals, avoiding sample heating. After rigorous mixing by vortex, the tubes were let stand at room temperature for 10 min, and then heptane (1 ml) and water (1.5 ml) were added and the tubes were thoroughly mixed by vortex followed by sonication for 1 min. Then the tubes were centrifuged at 1000×g for 10 min at 4° C.” for “v/v).”, “glycerokinase. […]” for “glycerokinase.”
# [1] = substrate: O=P(O)(O)OCC(O)CO; experiment: purified protein, by the assay type; settings: other: substrate glycerol-3-phosphate; pH 7.5
molecule,measurement,setting,value
O=C(O)CC(O)C(=O)O (stereo not drawn) [malate],G3PP activity (glycerol released),human G3PP (hG3PP),do not activate similarly
CCCCCCCCCCC[C@@H](C[C@@H]1OC(=O)[C@H]1CCCCCC)OC(=O)[C@H](CC(C)C)NC=O [orlistat],glycerol release,INS832/13 β-cells; elevated glucose concentration,not inhibited
same,FFA release (lipolysis),INS832/13 β-cells; high glucose concentrations,reduction
same,glycerol release,rat islets; elevated glucose concentration,not inhibited
same,FFA release (lipolysis),rat islets; high glucose concentrations,reduction
same,glycerol release,rat islets; medium concentration of glucose (10 mM),moderate inhibition
O=C(O)/C=C/C(=O)O [fumarate],G3PP activity (glycerol released),human G3PP (hG3PP),do not activate similarly
O=C(O)CC(=O)O [malonate],G3PP activity (glycerol released),human G3PP (hG3PP),do not activate similarly
O=C(O)CCC(=O)O [succinate],G3PP activity (glycerol released),human G3PP (hG3PP),marked stimulation
CC(O)CC(=O)O (stereo not drawn) [beta-hydroxybutyrate],G3PP activity (glycerol released),human G3PP (hG3PP),stimulated
Recombinant human PGP (Homo sapiens) (protein) MAAAEAGGDDARCVRLSAERAQALLADVDTLLFDCDGVLWRGETAVPGAPEALRALRARGKRLGFITNNSSKTRAAYAEKLRRLGFGGPAGPGASLEVFGTAYCTALYLRQRLAGAPAPKAYVLGSPALAAELEAVGVASVGVGPEPLQGEGPGDWLHAPLEPDVRAVVVGFDPHFSYMKLTKALRYLQQPGCLLVGTNMDNRLPLENGRFIAGTGCLVRAVEMAAQRQADIIGKPSRFIFDCVSQEYGINPERTVMVGDRLDTDILLGATCGLKTILTLTGVSTLGDVKNNQESDCVSKKKMVPDFYVDSIADLLPALQG,Km,[1],1500 µM
same,kcat,[1],0.1 s⁻¹
